Source: patent US20230382889A1 (Volastra Therapeutics, Inc., priority 2022, published 2023)

Target: hKIF18A (1-374) (Homo sapiens (Human), UniProt Q8NI77)
Assay: Inhibition of KIF18A microtubule-dependent ATPase activity (ADP-Glo)
Type: biochemical
Settings: 4 nM hKIF18A (1-374)
Method in brief: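 Reaction was started with pre-formed microtubules and ATP (0.2 mg/mL and 2.0 mM in the added mix) and run 60 min at 28 °C. ADP was read by ADP-Glo luminescence, and IC50 came from a four-parameter fit of % inhibition.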

Sequence of hKIF18A (1-374) (Q8NI77 1-374): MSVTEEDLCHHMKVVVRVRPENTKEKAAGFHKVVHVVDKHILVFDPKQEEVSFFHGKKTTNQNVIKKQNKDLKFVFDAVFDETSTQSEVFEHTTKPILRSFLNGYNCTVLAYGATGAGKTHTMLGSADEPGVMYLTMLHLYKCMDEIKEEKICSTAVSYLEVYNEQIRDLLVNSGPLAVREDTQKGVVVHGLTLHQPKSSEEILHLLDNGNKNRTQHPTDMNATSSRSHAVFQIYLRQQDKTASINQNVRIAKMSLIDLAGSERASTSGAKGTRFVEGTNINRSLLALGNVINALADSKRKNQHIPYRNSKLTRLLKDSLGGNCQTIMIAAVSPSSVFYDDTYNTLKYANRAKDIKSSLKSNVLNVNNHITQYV

Row | SMILES | IC50
1 | CCS(=O)(=O)Nc1ccc(-n2cc(-c3ccc(C(O)C4CCCC4)o3)nn2)c(N2CCC3(CC2)CC3)c1 (centres unmarked) [Compound 123, N-(4-(4-(5-(cyclopentyl(hydroxy)methyl)furan-2-yl)-1H-1,2,3-triazol-1-yl)-3-(6-azaspiro[2.5]octan-6-yl)phenyl)ethanesulfonamide] | 4.6 nM
2 | Cc1ncc(-c2cn(-c3ccc(NS(=O)(=O)CCO)cc3N3CCC4(CC3)CC4)nn2)nc1N1CCC(F)(F)CC1 [Compound 124, N-(4-(4-(6-(4,4-difluoropiperidin-1-yl)-5-methylpyrazin-2-yl)-1H-1,2,3-triazol-1-yl)-3-(6-azaspiro[2.5]octan-6-yl)phenyl)-2-hydroxyethane-1-sulfonamide] | 7.3 nM
3 | O=S(=O)(CCO)Nc1ccc(-n2cc(-c3ccc(C4=CCCC4)o3)nn2)c(N2CCC3(CC2)CC3)c1 [Compound 125, N-(4-(4-(5-(cyclopent-1-en-1-yl)furan-2-yl)-1H-1,2,3-triazol-1-yl)-3-(6-azaspiro[2.5]octan-6-yl)phenyl)-2-hydroxyethane-1-sulfonamide] | 9 nM
4 | O=S(=O)(CCO)Nc1ccc(-n2cc(-c3ccc(C4CCCC4)o3)nn2)c(N2CCC3(CC2)CC3)c1 [Compound 126, N-(4-(4-(5-cyclopentylfuran-2-yl)-1H-1,2,3-triazol-1-yl)-3-(6-azaspiro[2.5]octan-6-yl)phenyl)-2-hydroxyethane-1-sulfonamide] | 71 nM
5 | CS(=O)(=O)Nc1ccc(-n2cc(-c3cccc4c3OC3(CCCCC3)O4)nn2)c(N2CCC3(CC2)CC3)c1 [Compound 128, N-(3-(6-azaspiro[2.5]octan-6-yl)-4-(4-(spiro[benzo[d][1,3]dioxole-2,1′-cyclohexan]-4-yl)-1H-1,2,3-triazol-1-yl)phenyl)methanesulfonamide] | 98 nM
6 | O=S(=O)(CCO)Nc1ccc(-c2cn(-c3ccc(F)c(S(=O)(=O)N4CC(F)(F)C4)c3)nn2)c(N2CCC3(CC2)CC3)c1 [Compound 129, N-(4-(1-(3-((3,3-difluoroazetidin-1-yl)sulfonyl)-4-fluorophenyl)-1H-1,2,3-triazol-4-yl)-3-(6-azaspiro[2.5]octan-6-yl)phenyl)-2-hydroxyethane-1-sulfonamide] | 14 nM
7 | CCS(=O)(=O)Nc1ccc(-n2cc(-c3cc(CO)cc(N4CCC(F)(F)CC4)n3)nn2)c(N2CCC3(CC2)CC3)c1 [Compound 131, N-(4-(4-(6-(4,4-difluoropiperidin-1-yl)-4-(hydroxymethyl)pyridin-2-yl)-1H-1,2,3-triazol-1-yl)-3-(6-azaspiro[2.5]octan-6-yl)phenyl)ethanesulfonamide] | 29 nM
8 | CCS(=O)(=O)Nc1ccc(-n2cc(-c3ccc(S(=O)(=O)NC(C)(C)C)o3)nn2)c(N2CCC3(CC2)CC3)c1 [Compound 132, N-(tert-butyl)-5-(1-(4-(ethylsulfonamido)-2-(6-azaspiro[2.5]octan-6-yl)phenyl)-1H-1,2,3-triazol-4-yl)furan-2-sulfonamide] | 8.5 nM
9 | CCS(=O)(=O)Nc1ccc(-n2cc(-c3cc(C)cc(C(O)C4CCC4)n3)nn2)c(N2CCC3(CC2)CC3)c1 (centres unmarked) [Compound 133, N-(4-(4-(6-(cyclobutyl(hydroxy)methyl)-4-methylpyridin-2-yl)-1H-1,2,3-triazol-1-yl)-3-(6-azaspiro[2.5]octan-6-yl)phenyl)ethanesulfonamide] | 12 nM
10 | CCS(=O)(=O)Nc1ccc(-n2cc(-c3ccc(F)c(C(O)C4CCCC4)n3)nn2)c(N2CCC3(CC2)CC3)c1 (centres unmarked) [Compound 134, N-(4-(4-(6-(cyclopentyl(hydroxy)methyl)-5-fluoropyridin-2-yl)-1H-1,2,3-triazol-1-yl)-3-(6-azaspiro[2.5]octan-6-yl)phenyl)ethanesulfonamide] | 14 nM
11 | CS(=O)(=O)Nc1ccc(-n2cc(-c3nc(N4CCC(F)(F)CC4)ns3)nn2)c(N2CCC3(CC2)CC3)c1 [Compound 135, N-(4-(4-(3-(4,4-difluoropiperidin-1-yl)-1,2,4-thiadiazol-5-yl)-1H-1,2,3-triazol-1-yl)-3-(6-azaspiro[2.5]octan-6-yl)phenyl)methanesulfonamide] | 150 nM
